Experimental data taken from PubChem BioAssay AID2060512 (Molecular Pharmacology Branch, DTP, NCI, 2025).

Tested on: 186277-243-T-J2-PDC complex spheroid viability
Assay: Anticancer human tumor 186277-243-T-J2-PDC patient-derived colon adenocarcinoma cell line growth inhibition [GQUAD]
Conditions: for IC50: curve of first compound; for viability, T/C: stronger effect = lower value
Description: DNA G-quadruplex Stabilizer Agents in Combinations in Complex Spheroids
A high-throughput screen of multi-cell type tumor spheroids was designed to identify active combinations of DNA G-quadruplex stabilizer agents and targeted small molecules. Complex spheroids include a stromal component modeled by human endothelial cells (HUVEC) and fibroblasts modeled by human mesenchymal stem cells (MSCs). The concentration ranges selected for each drug and investigational agent were based upon clinically achievable concentrations if the clinical Cmax of the agent was known.
Compounds. The drugs and investigational agents: pidnarulex (CX-5461; NSC782164), APTO-253 (NSC789042), BRACO-19 (NSC847499), peposertib (NSC802822), ceralasertib (NSC780249), elimusertib (NSC800525), camonsertib (NSC841442), AZD-1390 (NSC803789), olaparib (NSC753686), talazoparib (NSC767125), ART-558 (NSC835418), sotorasib (NSC818433), MRTX-1133 (NSC836407), SN-38 (NSC673596), topotecan (NSC609699), etoposide (NSC141540), doxorubicin (NSC123127), gemcitabine (NSC613327), 5-fluorouracil (NSC19893), paclitaxel (NSC125973), vemurafenib (NSC761431), panobinostat (NSC761190), R-306465 (JNJ-16241199; NSC773264), adavosertib (NSC754352), TP-3654 (NSC805149), carboplatin (NSC241240), KSQ-4279 (NSC840948), and staurosporine (NSC755774) were obtained from the National Cancer Institute (NCI) Developmental Therapeutics Program Chemical Repository (34). The FDA-approved anticancer drug set is available from the NCI Developmental Therapeutics Program. […] The stock solutions were prepared in dimethyl sulfoxide (DMSO, Sigma-Aldrich, St. Louis, MO, cat. D2650) at 800-fold the tested concentration and stored at -70 degrees C prior to their use. All drugs and investigational agents were tested over a range starting from a high concentration at or near the clinical Cmax and decreasing in half-log increments. If the clinical Cmax for an agent had not been determined, the highest concentration tested was 10 microM.
2.3 Cell Culture. All cells were maintained in an incubator at 37 degrees C and 5% CO2 with 95% humidity. The PDC lines were cultured according to standard operating procedures established by the NCI PDMR. All PDCs were thawed and cultured in Matrigel-coated flasks prepared with a working solution of 1X Ham's F-12 nutrient mix, without supplementation (Invitrogen, cat. 11765054), 100 U/mL penicillin-streptomycin (Invitrogen, cat. 15140122), and 2.5% Matrigel (Corning Inc., cat. 354248) for the first three passages. The 857933-349-R-J2-PDC line was cultured in 6C/Colon 1B media, which includes advanced DMEM/F-12 (Thermo Fisher Scientific, cat. 12634028), 10 mM HEPES (Thermo Fisher Scientific, cat. 15630080), 1X GlutaMAX supplement (Thermo Fisher Scientific, cat. 35050061), 0.1 mg/mL primocin (InvivoGen, cat. ant-pm-2), 10% defined fetal bovine serum, heat inactivated (HyClone Laboratories Inc., cat. SH30070.03HI), 50% L-WRN conditioned media (ATCC, cat. CRL-3276), 1.25 mM N-Acetyl-L-cysteine (Sigma-Aldrich, cat. A9165), 10 mM nicotinamide (Sigma-Aldrich, cat. N0636), 1X B-27 supplement (Thermo Fisher Scientific, cat. 17504044), 1X N-2 supplement (Thermo Fisher Scientific, cat. 17502048), 10 microM Y-27632 dihydrochloride (Tocris Bioscience, cat. 1254), and 50 ng/mL human EGF recombinant protein (Thermo Fisher Scientific, cat. PHG0311). The 485176-168-R4-J1-PDC line was cultured in Panc media, which includes all 6C/Colon 1B media components plus 100 ng/mL human FGF-10 (Thermo Fisher Scientific, cat. 100-26), 500 nM SB-431542 (Selleckchem, cat. S1067), and gastrin (Tocris, cat. 3006).
[…]
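Also: spheroids exposed to drugs for 7 days.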
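For viability, T/C in this document: 100% = DMSO vehicle control viability.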

`O=C(NO)c1cnc(N2CCN(S(=O)(=O)c3ccc4ccccc4c3)CC2)nc1` + CN(C)c1ccc(Nc2c3ccc(NC(=O)CCN4CCCC4)cc3nc3cc(NC(=O)CCN4CCCC4)ccc23)cc1 showed an IC50 (second compound 0.0316 µM) of 171 nM, an IC50 (second compound 0.1 µM) of 176 nM and an IC50 (second compound 0.316 µM) of 182 nM. The IC50 (second compound 1 µM) was 176 nM, the IC50 (second compound 3.16 µM) was 183 nM and the IC50 (second compound 10 µM) was 183 nM. The viability, T/C (second compound 0.0316 µM, first compound 0.0316 µM) was 103%, the viability, T/C (second compound 0.0316 µM, first compound 0.1 µM) was 87% and the viability, T/C (second compound 0.0316 µM, first compound 0.316 µM) was 7.72%. The viability, T/C (second compound 0.0316 µM, first compound 1 µM) was 0.27%, the viability, T/C (second compound 0.0316 µM, first compound 3.16 µM) was 0.26% and the viability, T/C (second compound 0.0316 µM, first compound 10 µM) was 0.18%. For the same molecule, the viability, T/C (second compound 0.1 µM, first compound 0.0316 µM) was 90.1%, the viability, T/C (second compound 0.1 µM, first compound 0.1 µM) was 91.3% and the viability, T/C (second compound 0.1 µM, first compound 0.316 µM) was 7.71%. For the same molecule, the viability, T/C (second compound 0.1 µM, first compound 1 µM) was 0.23%, the viability, T/C (second compound 0.1 µM, first compound 3.16 µM) was 0.14% and the viability, T/C (second compound 0.1 µM, first compound 10 µM) was 0.15%. It also gave a viability, T/C (second compound 0.316 µM, first compound 0.0316 µM) of 105%, a viability, T/C (second compound 0.316 µM, first compound 0.1 µM) of 94.8% and a viability, T/C (second compound 0.316 µM, first compound 0.316 µM) of 8.34%. For the same molecule, the viability, T/C (second compound 0.316 µM, first compound 1 µM) was 0.23%, the viability, T/C (second compound 0.316 µM, first compound 3.16 µM) was 0.12% and the viability, T/C (second compound 0.316 µM, first compound 10 µM) was 0.13%. For the same molecule, the viability, T/C (second compound 1 µM, first compound 0.0316 µM) was 92.1%, the viability, T/C (second compound 1 µM, first compound 0.1 µM) was 90.8% and the viability, T/C (second compound 1 µM, first compound 0.316 µM) was 7.85%. It also gave a viability, T/C (second compound 1 µM, first compound 1 µM) of 0.24%, a viability, T/C (second compound 1 µM, first compound 3.16 µM) of 0.13% and a viability, T/C (second compound 1 µM, first compound 10 µM) of 0.13%. For the same molecule, the viability, T/C (second compound 3.16 µM, first compound 0.0316 µM) was 104%, the viability, T/C (second compound 3.16 µM, first compound 0.1 µM) was 94.2% and the viability, T/C (second compound 3.16 µM, first compound 0.316 µM) was 9.96%. For the same molecule, the viability, T/C (second compound 3.16 µM, first compound 1 µM) was 0.26%, the viability, T/C (second compound 3.16 µM, first compound 3.16 µM) was 0.16% and the viability, T/C (second compound 3.16 µM, first compound 10 µM) was 0.15%. It also gave a viability, T/C (second compound 10 µM, first compound 0.0316 µM) of 92.5%, a viability, T/C (second compound 10 µM, first compound 0.1 µM) of 101% and a viability, T/C (second compound 10 µM, first compound 0.316 µM) of 7.98%. The viability, T/C (second compound 10 µM, first compound 1 µM) was 0.3%, the viability, T/C (second compound 10 µM, first compound 3.16 µM) was 0.21% and the viability, T/C (second compound 10 µM, first compound 10 µM) was 0.19%.
